# Measured values from patent US20240150338A1, “COMPOUNDS AND USE THEREOF FOR TREATMENT OF NEURODEGENERATIVE, DEGENERATIVE AND METABOLIC DISORDERS” (University of Florida Research Foundation, Incorporated, priority 2021, published 2024).
# pEC50: −log10 of the molar value.
# Test system: PK1 neuroblastoma cells exposed to TPrP
# Experiment: cells
# Format: cell-based
# Details: Neuroblastoma cell, 96 h, read-out: TPrP EC50
row,Structure (SMILES),pEC50
1,"CC(C)NS(=O)(=O)c1ccc(-c2nc(Nc3ccc(S(C)(=O)=O)cc3)sc2CO)cc1 [SR-34971, 4-(5-(Hydroxymethyl)-2-((4-(methylsulfonyl)phenyl)amino)thiazol-4-yl)-N-isopropylbenzenesulfonamide]",< 6.30
2,"COc1cc(-c2nc(Nc3ccc(S(C)(=O)=O)c(F)c3)sc2CO)cc(OC)n1 [SR-34981, (4-(2,6-Dimethoxypyridin-4-yl)-2-((3-fluoro-4-(methylsulfonyl)phenyl)amino)thiazol-5-yl)methanol]",< 6.30
3,"COCc1sc(Nc2ccc(S(C)(=O)=O)cc2)nc1-c1ccnc(C)c1 [SR-35364, 5-(Methoxymethyl)-4-(2-methylpyridin-4-yl)-N-(4-(methylsulfonyl)phenyl)thiazol-2-amine]",6.64
4,"COc1cc(-c2csc(Nc3ccc(S(C)(=O)=O)c(C(F)(F)F)c3)n2)ccn1 [SR-34985, 4-(2-Methoxypyridin-4-yl)-N-(4-(methylsulfonyl)-3-(trifluoromethyl)phenyl)thiazol-2-amine]",6.47
5,"CCN(CC)S(=O)(=O)c1ccc(-c2nc(Nc3ccc(S(N)(=O)=O)cc3)sc2CO)cc1 [SR-34774, N,N-diethyl-4-(5-(hydroxymethyl)-2-((4-sulfamoylphenyl)amino)thiazol-4-yl)benzenesulfonamide]",6.82
6,"CS(=O)(=O)c1ccc(Nc2nc(-c3ccnc(Cl)c3)cs2)cc1F [SR-34972, 4-(2-Chloropyridin-4-yl)-N-(3-fluoro-4-(methylsulfonyl)phenyl)thiazol-2-amine]",6.90
7,"COc1cc(-c2nc(Nc3ccc(S(C)(=O)=O)c(F)c3)sc2CO)ccn1 [SR-34980, (2-((3-Fluoro-4-(methylsulfonyl)phenyl)amino)-4-(2-methoxypyridin-4-yl)thiazol-5-yl)methanol]",6.49
8,"CN(C)S(=O)(=O)c1ccc(-c2nc(Nc3ccc(S(N)(=O)=O)cc3)sc2CO)cc1 [SR-34775, 4-(5-(Hydroxymethyl)-2-((4-sulfamoylphenyl)amino)thiazol-4-yl)-N,N-dimethylbenzenesulfonamide]",7.22
9,"Cc1cc(-c2nc(Nc3ccc(S(C)(=O)=O)c(C(F)(F)F)c3)sc2CO)cc(C)n1 [SR-34989, (4-(2,6-Dimethylpyridin-4-yl)-2-((4-(methylsulfonyl)-3-(trifluoromethyl)phenyl)amino)thiazol-5-yl)methanol]",6.49
10,"COc1cc(-c2nc(Nc3ccc(S(C)(=O)=O)c(Cl)c3)sc2CO)ccn1 [SR-34996, (2-((3-Chloro-4-(methylsulfonyl)phenyl)amino)-4-(2-methoxypyridin-4-yl)thiazol-5-yl)methanol]",6.77
11,"COc1cc(-c2nc(Nc3ccc(S(C)(=O)=O)c(C(F)(F)F)c3)sc2CO)ccn1 [SR-34990, (4-(2-Methoxypyridin-4-yl)-2-((4-(methylsulfonyl)-3-(trifluoromethyl)phenyl)amino)thiazol-5-yl)methanol]",6.32
12,"CCOCc1sc(Nc2ccc(S(C)(=O)=O)cc2)nc1-c1ccnc(C)c1 [SR-35365, 5-(Ethoxymethyl)-4-(2-methylpyridin-4-yl)-N-(4-(methylsulfonyl)phenyl)thiazol-2-amine]",6.35
13,"Cc1cc(-c2nc(Nc3ccc(S(C)(=O)=O)c(C(F)(F)F)c3)sc2CO)ccn1 [SR-34988, (4-(2-Methylpyridin-4-yl)-2-((4-(methylsulfonyl)-3-(trifluoromethyl)phenyl)amino)thiazol-5-yl)methanol]",6.47
14,"CNS(=O)(=O)c1ccc(-c2csc(Nc3ccc(S(C)(=O)=O)c(C(F)(F)F)c3)n2)cc1 [SR-35734, N-methyl-4-(2-((4-(methylsulfonyl)-3-(trifluoromethyl)phenyl)amino)thiazol-4-yl)benzenesulfonamide]",8.52
15,"Cc1cc(-c2nc(Nc3ccc(S(C)(=O)=O)c(F)c3)sc2CO)ccn1 [SR-34978, (2-((3-Fluoro-4-(methylsulfonyl)phenyl)amino)-4-(2-methylpyridin-4-yl)thiazol-5-yl)methanol]",6.49
